{"source": "patent US20110281852A1", "about": "(priority 2010, published 2011)", "key": {"[1]": {"assay": "Serum glucose assay in mice", "format": "in vivo, mouse", "experimental": "(§1) Six mice per subgroup were obtained finally.\n(§2) Serum glucose, triglyceride, cholesterol assay: Blood samples from each mouse were collected and serum was separated by centrifugation for the measurement of levels of glucose, triglyceride and total cholesterol. Serum glucose concentrations were analyzed using Glucose (HK) Assay Kit (Sigma-aldrich, Saint Louis, Mo., USA). Serum triglyceride concentrations were analyzed using Serum Triglyceride Determination Kit (Sigma-aldrich, Saint Louis, Mo., USA). Serum cholesterol concentrations were analyzed using Amplex® Red Cholesterol Assay Kit (Invitrogen, Carlsbad, Calif., USA). All experimental assays were done according to the manufacturer's instructions."}, "[2]": {"tested_on": "3T3-L1 cells", "assay": "Oil-Red-O staining and quantification, clozapine/risperidone induced adipogenesis in 3T3-L1 (Example 2)", "format": "cell-based, mouse", "conditions": "8 μM berberine, 8 days", "experimental": "Detailed protocol was described as our previous report (Hu et al., Phytomedicine (2009) 16(9):864-873).\nOil-Red-O staining and quantification: Oil-Red-O Staining and its quantification were performed as previously reported (Liu et al., Sinica (2004) 25:1052-1057). Briefly, medium was removed and cells were washed with PBS twice, fixed with 3.7% formalin at room temperature for 30 min, then rinsed with pure water, added 60% isopropanol and incubated for 5 minutes, then moved out isopropanol and stained cells with diluted Oil-Red-O solution (Oil-Red-O store solution (3 mg/ml in pure isopropanol): water=3:2) at room temperature for 10 min. Then the diluted Oil-Red-O solution was removed and cells were washed 3 times with pure water. Images were obtained using an Olympus IX70 inverted microscope equipped for phase-contrast microscopy (Olympus, Tokyo, Japan). After staining, the cells were washed twice with 70% ethanol to remove excess stain. Stained oil droplets in the cells were dissolved in isopropanol containing 4% Nonidet-P40 (Fisher Scientific, Pittsburgh, Pa., USA) shaking in 37° C. at speed 100 rpm for 1 hour, and OD values were measured at an absorbance of 490 nm and then normalized with control group."}, "[3]": {"tested_on": "3T3-L1 cells", "assay": "Quantitative Oil Red O staining, 3T3-L1 adipocyte differentiation (Example 1)", "format": "cell-based, mouse", "conditions": "for reduction in fat droplets: 6 days post differentiation induction", "experimental": "Oil-Red-O Staining: Oil-Red-O Staining was performed as previously described (Liu et al. 2004). Images were obtained using an Olympus IX70 inverted microscope (Tokyo, Japan). Quantification Oil-Red-O Staining of cells was carried out as described (Furuyashiki et al., Biosci Biotechnol Biochem (2004) 68:[…]).\nStandard Oil Red O staining was then used to examine the extent of differentiation process at days 2, 4, 6, and 8 using microscopy. […] (FIG. 4)."}, "[4]": {"tested_on": "PPARγ", "assay": "Real-time RT-PCR, PPARγ mRNA in 3T3-L1", "format": "cell-based, mouse", "conditions": "8 days", "from_the_text": "Realtime RT-PCR: Real-time reverse transcriptase polymerase chain reaction (RT-PCR) analysis was used to measure mRNA expression of genes SREBP-1, PPARγ, C/EBPα, low density lipoprotein receptor (LDLR), Adiponectin, and fatty acid synthase (FAS) under the control of β-actin. Briefly, total RNA was isolated from 3T3-L1 cells following treatment for 8 days with Trizol reagent (Invitrogen, Carlsbad, Calif., USA) according to the manufacturer's instruction. RNA was quantified using absorption of light at 260 nm, and sample purity was checked by OD 260 nm/280 nm. 0.8 μg of total RNA from each sample was used for reverse transcription reaction using the TaqMan Reverse Transcription Reagents (Applied Biosystems, Foster City, Calif., USA) according to the manufacturers' instructions. PCR was done using the SYBR green Master Mix (Applied Biosystems, Foster City, Calif., USA) according to the manufacturers' instructions. The temperature cycling conditions of amplification were as follows: an initial step of denaturation at 95° C. for 10 min, 40 cycles of denaturation at 95° C. for 30 s, annealing at 55° C. for 30 s, and elongation at 72° C. for 30 s. Realtime RT-PCR was performed using Mx3000P Realtime Thermocyclers (Statagene, La Jolla, Calif., USA). The relative mRNA levels of these genes were calculated by 2-delta delta CT method and normalized with control groups."}, "[5]": {"assay": "Serum triglyceride assay in mice", "format": "in vivo, mouse", "experimental": "as §1, §2"}, "[6]": {"tested_on": "GATA-3", "assay": "Real-Time RT-PCR, GATA-3 mRNA in epididymal fat of FD mice", "format": "in vivo, mouse", "experimental": "RNA and protein purification and quantification from epididymal fat tissues: RNA and protein was isolated from 60 mg of epididymal fat tissues with Trizol (Invitrogen, Carlsbad, Calif., USA) following the protocol recommended by the manufacturers. RNA was dissolved in pure water and quantified at 260/280 nm, and sample integrity was checked by 1.5% agarose gel electrophoresis. Protein concentration was determined using the Micro BCA Protein Assay Kit (Fisher Scientific, Pittsburgh, Pa., USA) according to the manufacturer's instructions.\nQuantitative Real-Time RT-PCR: Real-Time reverse transcriptase polymerase chain reaction (RT-PCR) analysis was used to measure mRNA expression of genes PPARγ, C/EBPα, GATA-2 and GATA-3 in the control of β-actin. Total RNA (0.8 μg) from each sample was used for a reverse transcription reaction using the TaqMan Reverse Transcription Reagents (Applied Biosystems, Foster City, Calif., USA) following the manufacturer's instructions. PCR was done using the SYBR green Master Mix (Applied Biosystems, Foster City, Calif., USA) following the manufacturer's instructions. The cycling conditions of amplification were as follows: an initial step of denaturation at 95° C. for 10 min, 40 cycles of denaturation at 95° C. for 30 s, annealing at 55° C. for 30 s, and elongation at 72° C. for 30 s. Real-Time PCR was performed using Mx3000P Real-Time Thermocyclers (Stratagene, La Jolla, Calif., USA). The relative mRNA levels of these genes were calculated by 2-delta delta CT method and normalized with control-treated groups."}, "[7]": {"conditions": "FD mice, 1.5 mg/kg/day, 36 days"}}, "data": [{"smiles": "COc1ccc2cc3[n+](cc2c1OC)CCc1cc2c(cc1-3)OCO2.[Cl-]", "note": "[berberine, Berberine (Chloride Form)]", "values": [{"measurement": "reduction of serum glucose level vs control treated subgroup", "setting": "[1]; FD mice, 0.75 mg/kg/day", "result": 19.5, "unit": "%"}, {"measurement": "fasting serum glucose level", "setting": "[1]; FD mice, 0.75 mg/kg/day, 36 days (control 195.4±27.3)", "result": "157.3 ± 22.5", "unit": "mg/dL"}, {"measurement": "reduction of serum glucose level vs control treated subgroup", "setting": "[1]; FD mice, 1.5 mg/kg/day", "result": 22.3, "unit": "%"}, {"measurement": "fasting serum glucose level", "setting": "[1]; [7]", "result": "151.8 ± 21.1", "unit": "mg/dL"}, {"measurement": "reduction of serum glucose level vs control treated subgroup", "setting": "[1]; FD mice, 3 mg/kg/day", "result": 26.5, "unit": "%"}, {"measurement": "fasting serum glucose level", "setting": "[1]; FD mice, 3 mg/kg/day, 36 days", "result": "143.5 ± 12.7", "unit": "mg/dL"}, {"measurement": "fasting serum glucose level", "setting": "[1]; ND mice, 3 mg/kg/day (control 120.6±27.5)", "result": "130.9 ± 16.2", "unit": "mg/dL"}, {"measurement": "reduction in lipid content vs no berberine treated group", "setting": "[2]; 15 μM clozapine group", "result": 78.5, "unit": "%"}, {"measurement": "reduction in lipid content vs no berberine treated group", "setting": "[2]; 25 μM risperidone group", "result": 78.7, "unit": "%"}, {"measurement": "reduction in lipid content vs no berberine treated group", "setting": "[2]; 30 μM clozapine group", "result": 73.2, "unit": "%"}, {"measurement": "reduction in lipid content vs no berberine treated group", "setting": "[2]; 50 μM risperidone group", "result": 81, "unit": "%"}, {"measurement": "reduction in lipid content vs no berberine treated group", "setting": "[2]; control group (clozapine series)", "result": 70, "unit": "%"}, {"measurement": "reduction in lipid content vs no berberine treated group", "setting": "[2]; control group (risperidone series)", "result": 72, "unit": "%"}, {"measurement": "reduction in fat droplets", "setting": "[3]; 1 μM", "result": 30.6, "unit": "%"}, {"measurement": "reduction in fat droplets", "setting": "[3]; 2 μM", "result": 35.8, "unit": "%"}, {"measurement": "reduction in fat droplets", "setting": "[3]; 4 μM", "result": 40, "unit": "%"}, {"measurement": "reduction in fat droplets", "setting": "[3]; 8 μM", "result": 48.6, "unit": "%"}, {"measurement": "inhibition at 1 µM", "setting": "[3]; Mus musculus, 3T3-L1, 192 h, 1 μM, 8 days, fully differentiated cells, read-out: inhibition of fat amount", "result": 59.4, "unit": "%"}, {"measurement": "inhibition at 2 µM", "setting": "[3]; Mus musculus, 3T3-L1, 192 h, 2 μM, 8 days, fully differentiated cells, read-out: inhibition of fat amount", "result": 58.4, "unit": "%"}, {"measurement": "inhibition at 4 µM", "setting": "[3]; Mus musculus, 3T3-L1, 192 h, 4 μM, 8 days, fully differentiated cells, read-out: inhibition of fat amount", "result": 71.8, "unit": "%"}, {"measurement": "inhibition at 8 µM", "setting": "[3]; Mus musculus, 3T3-L1, 192 h, 8 μM, 8 days, fully differentiated cells, read-out: inhibition of fat amount", "result": 72.6, "unit": "%"}, {"measurement": "decrease of PPARγ mRNA expression vs clozapine treated group", "setting": "[4]; 8 μM berberine + 15 μM clozapine", "result": 87.7, "unit": "%"}, {"measurement": "decrease of PPARγ mRNA expression vs risperidone treated group", "setting": "[4]; 8 μM berberine + 50 μM risperidone", "result": 93.1, "unit": "%"}, {"measurement": "reduction of serum triglyceride level vs control treated group", "setting": "[5]; FD mice, 0.75 mg/kg/day", "result": 31.2, "unit": "%"}, {"measurement": "serum triglyceride level", "setting": "[5]; FD mice, 0.75 mg/kg/day, 36 days (control 135.6±17.0)", "result": "93.2 ± 20.8", "unit": "mg/dL"}, {"measurement": "reduction of serum triglyceride level vs control treated group", "setting": "[5]; FD mice, 1.5 mg/kg/day", "result": 25.2, "unit": "%"}, {"measurement": "serum triglyceride level", "setting": "[5]; [7]", "result": "101.4 ± 9.7", "unit": "mg/dL"}, {"measurement": "reduction of serum triglyceride level vs control treated group", "setting": "[5]; FD mice, 3 mg/kg/day", "result": 37.8, "unit": "%"}, {"measurement": "serum triglyceride level", "setting": "[5]; FD mice, 3 mg/kg/day, 36 days", "result": "84.3 ± 18", "unit": "mg/dL"}, {"measurement": "serum triglyceride level", "setting": "[5]; ND mice, 3 mg/kg/day (control 70.7±14)", "result": "70.7 ± 12.8", "unit": "mg/dL"}, {"measurement": "GATA-3 mRNA expression up-regulated by", "setting": "[6]; 0.75 mg/kg/day", "result": 3.2, "unit": "fold"}, {"measurement": "GATA-3 mRNA expression up-regulated by", "setting": "[6]; 1.5 mg/kg/day", "result": 4.3, "unit": "fold"}, {"measurement": "GATA-3 mRNA expression up-regulated by", "setting": "[6]; 3 mg/kg/day", "result": 4.8, "unit": "fold"}]}]}
